Reference: US11352350B2, “IRAK degraders and uses thereof” (Kymera Therapeutics, Inc., priority 2018, dated 2022)

Legend:
[1] = tested on: OCI-LY10 tumor cells; assay: OCI-LY10 large B lymphoma xenograft model in C.B. 17 SCID mice; assay type: in vivo, mouse
Protocol: Cell Culture: The OCI-LY10 or TMD8 tumor cells were maintained as suspension in RPMI1640 medium supplemented with 10% fetal bovine serum, 100 U/mL penicillin and 100 μg/mL streptomycin at 37° C. in an atmosphere of 5% CO2 in air. The tumor cells were routinely subcultured twice weekly by trypsin-EDTA treatment. The cells growing in an exponential growth phase were harvested and counted for tumor inoculation.
Animals: C.B. 17 SCID, female, 6-8 weeks, weighing approximately 16-18 g were used. Animals were housed and maintained according to IACUC protocols.
Tumor Inoculation: Each mouse was inoculated subcutaneously at the right flank with OCI-LY10 or TMD8 tumor cells (10×10^6) in 0.2 mL of PBS with matrigel for tumor development. The treatments were started when the tumor sizes reached approximately 150-450 mm^3 for the studies.
Assignment to Groups: Before commencement of treatment, all animals were weighed and the tumor volumes were measured. Since the tumor volume can affect the compound PK/PD, mice are assigned into groups using an Excel-based randomization procedure performing stratified randomization based upon their tumor volumes.
Observation: After tumor inoculation, the animals were checked daily for morbidity and mortality. During routine monitoring, the animals were checked for any effects of tumor growth and treatments on behavior such as mobility, food and water consumption, body weight gain/loss, eye/hair matting and any other abnormalities. Mortality and observed clinical signs were recorded for individual animals in detail.
Data Collection: Tumor volumes were measured in two dimensions using a caliper, and the volumes were expressed in mm^3 using the formula: “V=(L×W×W)/2, where V is tumor volume, L is tumor length (the longest tumor dimension) and W is tumor width (the longest tumor dimension perpendicular to L).
At termination: At pre-determined time points based on study design, animals were humanely sacrificed by CO2. Blood was obtained by cardiac puncture for isolation of plasma, any residual tumor was removed and divided in 2 portions, 1 (minimal) for terminal compound exposure and 1 to determine IRAK4 and actin. Compound was determined in tumor and plasma using LC/MS with calibrated standards.

[2] = target: T1, IRAK4 (Homo sapiens (Human), UniProt Q9NWZ3); assay: IRAK4 degradation in human whole blood monocyte - flow cytometry; assay type: cell-based; settings: read-out: IRAK4 degradation in whole blood monocyte-Flow cytometry: Average external Abs IC50
T1 sequence (Q9NWZ3 whole entry): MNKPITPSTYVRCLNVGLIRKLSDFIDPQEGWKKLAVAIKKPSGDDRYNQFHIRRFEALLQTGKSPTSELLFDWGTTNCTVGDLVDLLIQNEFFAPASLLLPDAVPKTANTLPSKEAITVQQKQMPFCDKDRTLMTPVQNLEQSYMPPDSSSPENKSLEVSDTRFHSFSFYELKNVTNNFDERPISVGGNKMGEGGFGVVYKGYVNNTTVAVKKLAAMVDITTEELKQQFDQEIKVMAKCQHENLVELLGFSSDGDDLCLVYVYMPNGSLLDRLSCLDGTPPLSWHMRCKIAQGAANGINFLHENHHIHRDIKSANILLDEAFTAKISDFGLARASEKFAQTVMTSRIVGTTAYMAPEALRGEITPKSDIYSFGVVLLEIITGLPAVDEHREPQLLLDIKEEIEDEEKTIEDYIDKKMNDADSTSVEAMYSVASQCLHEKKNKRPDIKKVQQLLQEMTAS
Summary of the method: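 Fresh heparinized human whole blood dosed (10-point, 5-fold, 0.1% DMSO) for 20 h or 4 h at 37 °C, then fixed, stained and IRAK4 MFI quantified by flow in CD14+ monocytes and CD14− lymphocytes. DC50 and Dmax via 4-parameter logistic fit normalized to DMSO and 10 μM control.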

[3] = tested on: TNFα; assay: Human whole blood LPS TNFα assay; assay type: cell-based; settings: 20 h pretreatment, LPS 5 h, read-out: IRAK4 human whole blood LPS TNFa inhibition: Average external-IC50
Summary of the method: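 Fresh human whole blood pretreated 20 h at 37 °C with compound (8-point, 5-fold dilution from 2 μM start), then stimulated with 100 ng/ml LPS (final) for 5 h. Plasma TNFα quantified by MSD V-plex, normalised to stimulated and unstimulated controls; IC50 from 4-parameter logistic fit.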

[4] = target: T1, IRAK4; assay: IRAK4 MSD degradation in OCI-LY10; assay type: cell-based; settings: for DC50: OCI-LY10, 4 hrs, MSD, read-out: IRAK4 MSD degradation in OCI-LY10 at 4 hrs: Average external-Abs DC50
Summary of the method: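 OCI-LY10 cells treated with 8-point 1:3 dilutions (top 1 to 10 μM final) for 4 to 24 h at 37° C. Lysate IRAK4 measured by MSD sandwich immunoassay (2H9 capture, Y279 detection, SULFO-TAG anti-rabbit). DC50 from three-parameter logistic fit.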

Structure (SMILES) | antitumor activity against OCI-LY10, oral dosing ([1]; xenograft-bearing mice, FIG. 14) | DC50 [2] [nM] | IC50 [3] [nM] | DC50 [4] [nM] | antitumor effect in OCI-LY10 xenograft ([1]; FIG. 6 A-C) | in vivo tumor growth inhibition, combination with ibrutinib ([1]; OCI-LY10 (MYD88 L265P, CD79 mutant), combination of I-30 and ibrutinib at sub-optimal single agent concentrations, FIG. 13) | in vivo tumor growth of implanted OCI-LY10 (MYD88 mutant) cells ([1]; PO BID administration, FIG. 7) | IC50 [2] [nM] | depletion of IRAK4 in MYD88 mutant lymphoma cell lines ([4]; OCI-LY10 and TMD8, FIGS. 1-3 and 10)
CN(C[C@H]1CC[C@H](n2cc(NC(=O)c3coc(-c4ccnc(NCC5CC5)c4)n3)c(C(F)F)n2)CC1)C1CCN(Cc2cccc3c2n(C)c(=O)n3C2CCC(=O)NC2=O)CC1 (some centres unmarked) [I-75, 2-(2-((cyclopropylmethyl)amino)pyridin-4-yl)-N-(3-(difluoromethyl)-1-((1r,4r)-4-(((1-((1-(2,6-dioxopiperidin-3-yl)-3-methyl-2-oxo-2,3-dihydro-1H-benzo[d]imidazol-4-yl)methyl)piperidin-4-yl)(methyl)amino)methyl)cyclohexyl)-1H-pyrazol-4-yl)oxazole-4-carboxamide] | dose-dependent antitumor activity | 50 to 100 | > 1000 | < 10 | – | – | – | – | –
CN(CCCOCCCc1cccc2c1n(C)c(=O)n2C1CCC(=O)NC1=O)C[C@H]1CC[C@H](n2cc(NC(=O)c3coc(-c4ccnc(NCC5CC5)c4)n3)c(C(F)F)n2)CC1 (mixture of isomers) [I-30, 2-[2-(Cyclopropylmethylamino)-4-pyridyl]-N-[3-(difluoromethyl)-1-[4-[[3-[3-[1-(2,6-dioxo-3-piperidyl)-3-methyl-2-oxo-benzimidazol-4-yl]propoxy]propyl-methyl-amino]methyl]cyclohexyl]pyrazol-4-yl] oxazole-4-carboxamide] | – | – | 100 to 500 | < 10 | causes tumor regression | synergistic in vivo tumor growth inhibition | inhibits in vivo tumor growth | < 50 | potent depletion of IRAK4
